Measurements taken from the NIST ThermoML archive (doi:10.1021/je800925v).
± gives the expanded uncertainty stated by the source.

Experiment: xn = mol fraction of the nth substance listed
Settings: Liquid

CCCCCC [hexane] + CCO
Settings	mass density [kg/m3]	viscosity [mPa·s]
273.15 K, x2 = 0.101	688.8 ± 2.7	0.3638 ± 0.04
273.15 K, x2 = 0.198	694.5 ± 2.6	0.4 ± 0.041
273.15 K, x2 = 0.302	702 ± 2.6	0.4511 ± 0.042
273.15 K, x2 = 0.401	712.1 ± 2.5	0.5478 ± 0.045
273.15 K, x2 = 0.496	721.4 ± 2.5	0.6415 ± 0.047
273.15 K, x2 = 0.6	732.7 ± 2.4	0.77 ± 0.051
273.15 K, x2 = 0.701	744.1 ± 2.4	0.8963 ± 0.054
273.15 K, x2 = 0.793	760.4 ± 2.4	1.096 ± 0.059
273.15 K, x2 = 0.901	781.1 ± 2.3	1.377 ± 0.067
275.65 K, x2 = 0.101	686.5 ± 2.7	0.3563 ± 0.04
275.65 K, x2 = 0.198	692.3 ± 2.6	0.3904 ± 0.041
275.65 K, x2 = 0.302	699.7 ± 2.6	0.4388 ± 0.042
275.65 K, x2 = 0.401	709.8 ± 2.6	0.5294 ± 0.044
275.65 K, x2 = 0.496	719.2 ± 2.5	0.6182 ± 0.047
275.65 K, x2 = 0.6	730.5 ± 2.5	0.7386 ± 0.05
275.65 K, x2 = 0.701	741.9 ± 2.4	0.8583 ± 0.053
275.65 K, x2 = 0.793	758.3 ± 2.4	1.047 ± 0.058
275.65 K, x2 = 0.901	779 ± 2.3	1.311 ± 0.065
278.15 K, x2 = 0.101	684.3 ± 2.7	0.3492 ± 0.04
278.15 K, x2 = 0.198	690 ± 2.6	0.3812 ± 0.041
278.15 K, x2 = 0.302	697.5 ± 2.6	0.4269 ± 0.042
278.15 K, x2 = 0.401	707.6 ± 2.6	0.5119 ± 0.044
278.15 K, x2 = 0.496	716.9 ± 2.5	0.5956 ± 0.046
278.15 K, x2 = 0.6	728.3 ± 2.5	0.709 ± 0.049
278.15 K, x2 = 0.701	739.7 ± 2.4	0.8224 ± 0.052
278.15 K, x2 = 0.793	756.1 ± 2.4	1 ± 0.057
278.15 K, x2 = 0.901	776.8 ± 2.3	1.25 ± 0.063
280.65 K, x2 = 0.101	682 ± 2.7	0.3422 ± 0.04
280.65 K, x2 = 0.198	687.8 ± 2.7	0.3722 ± 0.04
280.65 K, x2 = 0.302	695.2 ± 2.6	0.4154 ± 0.042
280.65 K, x2 = 0.401	704.9 ± 2.6	0.4927 ± 0.043
280.65 K, x2 = 0.496	714.7 ± 2.5	0.5741 ± 0.045
280.65 K, x2 = 0.6	726.1 ± 2.5	0.6809 ± 0.048
280.65 K, x2 = 0.701	737.4 ± 2.4	0.7884 ± 0.051
280.65 K, x2 = 0.793	753.9 ± 2.4	0.9561 ± 0.056
280.65 K, x2 = 0.901	774.7 ± 2.3	1.191 ± 0.062
283.15 K, x2 = 0.101	679.8 ± 2.7	0.3352 ± 0.039
283.15 K, x2 = 0.198	685.5 ± 2.7	0.3635 ± 0.04
283.15 K, x2 = 0.302	692.9 ± 2.6	0.4042 ± 0.041
283.15 K, x2 = 0.401	702.7 ± 2.6	0.4766 ± 0.043
283.15 K, x2 = 0.496	712.4 ± 2.5	0.5537 ± 0.045
283.15 K, x2 = 0.6	723.8 ± 2.5	0.6543 ± 0.048
283.15 K, x2 = 0.701	735.2 ± 2.5	0.7562 ± 0.05
283.15 K, x2 = 0.793	751.7 ± 2.4	0.9147 ± 0.055
283.15 K, x2 = 0.901	772.5 ± 2.3	1.136 ± 0.06
285.65 K, x2 = 0.101	677.5 ± 2.7	0.3283 ± 0.039
285.65 K, x2 = 0.198	683.2 ± 2.7	0.3549 ± 0.04
285.65 K, x2 = 0.302	690.6 ± 2.7	0.3934 ± 0.041
285.65 K, x2 = 0.401	700.4 ± 2.6	0.4614 ± 0.043
285.65 K, x2 = 0.496	710.1 ± 2.6	0.5343 ± 0.044
285.65 K, x2 = 0.6	721.5 ± 2.5	0.629 ± 0.047
285.65 K, x2 = 0.701	733 ± 2.5	0.7257 ± 0.049
285.65 K, x2 = 0.793	749.5 ± 2.4	0.8754 ± 0.053
285.65 K, x2 = 0.901	770.4 ± 2.3	1.085 ± 0.059
288.15 K, x2 = 0.101	675.2 ± 2.7	0.3215 ± 0.039
288.15 K, x2 = 0.198	680.9 ± 2.7	0.346 ± 0.04
288.15 K, x2 = 0.302	688.3 ± 2.7	0.383 ± 0.041
288.15 K, x2 = 0.401	698.1 ± 2.6	0.4239 ± 0.042
288.15 K, x2 = 0.496	707.9 ± 2.6	0.5159 ± 0.044
288.15 K, x2 = 0.6	719.3 ± 2.5	0.6052 ± 0.046
288.15 K, x2 = 0.701	730.8 ± 2.5	0.6967 ± 0.049
288.15 K, x2 = 0.793	747.3 ± 2.4	0.8384 ± 0.053
288.15 K, x2 = 0.901	768.2 ± 2.4	1.036 ± 0.058
290.65 K, x2 = 0.101	672.8 ± 2.7	0.3147 ± 0.039
290.65 K, x2 = 0.198	678.6 ± 2.7	0.3366 ± 0.039
290.65 K, x2 = 0.302	686 ± 2.7	0.3728 ± 0.04
290.65 K, x2 = 0.401	695.8 ± 2.6	0.433 ± 0.042
290.65 K, x2 = 0.496	705.5 ± 2.6	0.498 ± 0.044
290.65 K, x2 = 0.6	717 ± 2.5	0.5822 ± 0.046
290.65 K, x2 = 0.701	728.5 ± 2.5	0.6691 ± 0.048
290.65 K, x2 = 0.793	745.1 ± 2.4	0.8031 ± 0.052
290.65 K, x2 = 0.901	766 ± 2.4	0.9898 ± 0.056
293.15 K, x2 = 0	659.8 ± 2.8	0.2979 ± 0.038
293.15 K, x2 = 0.101	670.5 ± 2.8	0.308 ± 0.039
293.15 K, x2 = 0.198	676.2 ± 2.7	0.3264 ± 0.039
293.15 K, x2 = 0.302	683.7 ± 2.7	0.3597 ± 0.04
293.15 K, x2 = 0.401	693.5 ± 2.6	0.3995 ± 0.041
293.15 K, x2 = 0.496	703.2 ± 2.6	0.4493 ± 0.042
293.15 K, x2 = 0.6	714.7 ± 2.5	0.5606 ± 0.045
293.15 K, x2 = 0.701	726.2 ± 2.5	0.643 ± 0.047
293.15 K, x2 = 0.793	742.8 ± 2.5	0.7696 ± 0.051
293.15 K, x2 = 0.901	763.9 ± 2.4	0.9463 ± 0.055
295.65 K, x2 = 0.101	668.2 ± 2.8	0.3016 ± 0.038
295.65 K, x2 = 0.198	673.9 ± 2.7	0.3161 ± 0.039
295.65 K, x2 = 0.302	681.4 ± 2.7	0.3499 ± 0.04
295.65 K, x2 = 0.401	691.1 ± 2.7	0.3949 ± 0.041
295.65 K, x2 = 0.496	700.9 ± 2.7	0.4437 ± 0.042
295.65 K, x2 = 0.6	712.4 ± 2.5	0.5401 ± 0.045
295.65 K, x2 = 0.701	724 ± 2.5	0.6182 ± 0.047
295.65 K, x2 = 0.793	740.6 ± 2.5	0.7377 ± 0.05
295.65 K, x2 = 0.901	761.7 ± 2.4	0.9052 ± 0.054
298.15 K, x2 = 0	655.3 ± 2.8	0.2865 ± 0.038
298.15 K, x2 = 0.101	665.9 ± 2.8	0.2953 ± 0.038
298.15 K, x2 = 0.198	671.5 ± 2.7	0.3049 ± 0.039
298.15 K, x2 = 0.302	679 ± 2.7	0.3398 ± 0.04
298.15 K, x2 = 0.401	688.8 ± 2.7	0.3755 ± 0.04
298.15 K, x2 = 0.496	–	0.4288 ± 0.042
298.15 K, x2 = 0.6	710.1 ± 2.6	0.5021 ± 0.044
298.15 K, x2 = 0.701	721.7 ± 2.5	0.5944 ± 0.046
298.15 K, x2 = 0.793	738.3 ± 2.5	0.7071 ± 0.049
298.15 K, x2 = 0.901	759.5 ± 2.4	0.8663 ± 0.053
